Measured values taken from PubChem BioAssay AID1963840 (Molecular Pharmacology Branch, DTP, NCI, 2024).

System: 695427-040-R-J1-PDC complex spheroid viability
Experiment: Anticancer human tumor 695427-040-R-J1-PDC patient-derived colon adenocarcinoma cell line growth inhibition [POLQ]
Conditions: for IC50: curve of first compound; for viability, T/C: stronger effect = lower value
Method in brief: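 Three-cell-type spheroids modelling solid tumor plus stroma served as the readout system; POL inhibitors were tested individually and in combination, concentration ranges set by clinical Cmax where known.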

[1] = second compound 0.0316 µM, first compound 0.00316 µM
[2] = second compound 0.0316 µM, first compound 0.01 µM
[3] = second compound 0.0316 µM, first compound 0.0316 µM
[4] = second compound 0.0316 µM, first compound 0.1 µM
[5] = second compound 0.0316 µM, first compound 0.316 µM
[6] = second compound 0.0316 µM, first compound 1 µM
[7] = second compound 0.1 µM, first compound 0.00316 µM
[8] = second compound 0.1 µM, first compound 0.01 µM
[9] = second compound 0.1 µM, first compound 0.0316 µM
[10] = second compound 0.1 µM, first compound 0.1 µM
[11] = second compound 0.1 µM, first compound 0.316 µM
[12] = second compound 0.1 µM, first compound 1 µM
[13] = second compound 0.316 µM, first compound 0.00316 µM
[14] = second compound 0.316 µM, first compound 0.01 µM
[15] = second compound 0.316 µM, first compound 0.0316 µM
[16] = second compound 0.316 µM, first compound 0.1 µM
[17] = second compound 0.316 µM, first compound 0.316 µM
[18] = second compound 0.316 µM, first compound 1 µM
[19] = second compound 1 µM, first compound 0.00316 µM
[20] = second compound 1 µM, first compound 0.01 µM
[21] = second compound 1 µM, first compound 0.0316 µM
[22] = second compound 1 µM, first compound 0.1 µM
[23] = second compound 1 µM, first compound 0.316 µM
[24] = second compound 1 µM, first compound 1 µM
[25] = second compound 3.16 µM, first compound 0.00316 µM
[26] = second compound 3.16 µM, first compound 0.01 µM
[27] = second compound 3.16 µM, first compound 0.0316 µM
[28] = second compound 3.16 µM, first compound 0.1 µM
[29] = second compound 3.16 µM, first compound 0.316 µM
[30] = second compound 3.16 µM, first compound 1 µM
[31] = second compound 10 µM, first compound 0.00316 µM
[32] = second compound 10 µM, first compound 0.01 µM
[33] = second compound 10 µM, first compound 0.0316 µM
[34] = second compound 10 µM, first compound 0.1 µM
[35] = second compound 10 µM, first compound 0.316 µM
[36] = second compound 10 µM, first compound 1 µM
[37] = second compound 0.0316 µM, first compound 3.16 µM
[38] = second compound 0.0316 µM, first compound 10 µM
[39] = second compound 0.1 µM, first compound 3.16 µM
[40] = second compound 0.1 µM, first compound 10 µM
[41] = second compound 0.316 µM, first compound 3.16 µM
[42] = second compound 0.316 µM, first compound 10 µM
[43] = second compound 1 µM, first compound 3.16 µM
[44] = second compound 1 µM, first compound 10 µM
[45] = second compound 3.16 µM, first compound 3.16 µM
[46] = second compound 3.16 µM, first compound 10 µM
[47] = second compound 10 µM, first compound 3.16 µM
[48] = second compound 10 µM, first compound 10 µM
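Note: spheroids exposed to compounds for seven days.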
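Throughout, for viability, T/C: 100% = DMSO vehicle control viability.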

With `CCc1c2c(nc3ccc(O)cc13)-c1cc3c(c(=O)n1C2)COC(=O)[C@]3(O)CC` + Cc1cccc(N(C)C(=O)C2C(O)CCN2c2nc(C)cc(C(F)(F)F)c2C#N)c1 the IC50 (second compound 0.0316 µM) was > 1 µM, the IC50 (second compound 0.1 µM) was > 1 µM and the IC50 (second compound 0.316 µM) was > 1 µM. The IC50 (second compound 1 µM) was > 1 µM, the IC50 (second compound 3.16 µM) was 0.912 µM and the IC50 (second compound 10 µM) was 0.572 µM. The viability, T/C [1] was 101%, the viability, T/C [2] was 90.1% and the viability, T/C [3] was 83%. It also gave a viability, T/C [4] of 81.7%, a viability, T/C [5] of 66.1% and a viability, T/C [6] of 51.4%. It also gave a viability, T/C [7] of 99.6%, a viability, T/C [8] of 98.9% and a viability, T/C [9] of 80.5%. For the same molecule, the viability, T/C [10] was 76.3%, the viability, T/C [11] was 69.3% and the viability, T/C [12] was 52.8%. For the same molecule, the viability, T/C [13] was 93.2%, the viability, T/C [14] was 92.8% and the viability, T/C [15] was 90.7%. It also gave a viability, T/C [16] of 75.8%, a viability, T/C [17] of 67.4% and a viability, T/C [18] of 49.7%. It also gave a viability, T/C [19] of 96.2%, a viability, T/C [20] of 94.5% and a viability, T/C [21] of 85.2%. It also gave a viability, T/C [22] of 77.3%, a viability, T/C [23] of 67.9% and a viability, T/C [24] of 51.2%. It also gave a viability, T/C [25] of 89.4%, a viability, T/C [26] of 84.9% and a viability, T/C [27] of 82.2%. For the same molecule, the viability, T/C [28] was 82.8%, the viability, T/C [29] was 66.3% and the viability, T/C [30] was 48.6%. The viability, T/C [31] was 84.2%, the viability, T/C [32] was 80.7% and the viability, T/C [33] was 78.9%. The viability, T/C [34] was 70.5%, the viability, T/C [35] was 58.5% and the viability, T/C [36] was 41.7%.

`CNCc1ccc(-c2[nH]c3cc(F)cc4c3c2CCNC4=O)cc1` + Cc1cccc(N(C)C(=O)C2C(O)CCN2c2nc(C)cc(C(F)(F)F)c2C#N)c1 was tested, and the IC50 (second compound 0.0316 µM) was > 10 µM, the IC50 (second compound 0.1 µM) was > 10 µM and the IC50 (second compound 0.316 µM) was > 10 µM. For the same molecule, the IC50 (second compound 1 µM) was > 10 µM, the IC50 (second compound 3.16 µM) was > 10 µM and the IC50 (second compound 10 µM) was > 10 µM. For the same molecule, the viability, T/C [3] was 102%, the viability, T/C [4] was 104% and the viability, T/C [5] was 105%. It also gave a viability, T/C [6] of 96.8%, a viability, T/C [37] of 108% and a viability, T/C [38] of 109%. The viability, T/C [9] was 111%, the viability, T/C [10] was 100% and the viability, T/C [11] was 95.9%. The viability, T/C [12] was 95.3%, the viability, T/C [39] was 105% and the viability, T/C [40] was 108%. The viability, T/C [15] was 104%, the viability, T/C [16] was 99.3% and the viability, T/C [17] was 104%. For the same molecule, the viability, T/C [18] was 103%, the viability, T/C [41] was 102% and the viability, T/C [42] was 99.6%. For the same molecule, the viability, T/C [21] was 92.7%, the viability, T/C [22] was 93.9% and the viability, T/C [23] was 93.6%. For the same molecule, the viability, T/C [24] was 98%, the viability, T/C [43] was 110% and the viability, T/C [44] was 102%. The viability, T/C [27] was 99%, the viability, T/C [28] was 98.1% and the viability, T/C [29] was 98.4%. The viability, T/C [30] was 103%, the viability, T/C [45] was 108% and the viability, T/C [46] was 104%. The viability, T/C [33] was 92.3%, the viability, T/C [34] was 92.1% and the viability, T/C [35] was 88.9%. For the same molecule, the viability, T/C [36] was 93.2%, the viability, T/C [47] was 104% and the viability, T/C [48] was 104%.

For `COc1cccc(OCCCN)c1-c1cc(Nc2cnc(C#N)cn2)n[nH]1` + Cc1cccc(N(C)C(=O)C2C(O)CCN2c2nc(C)cc(C(F)(F)F)c2C#N)c1, the IC50 (second compound 0.0316 µM) was > 1 µM, the IC50 (second compound 0.1 µM) was > 1 µM and the IC50 (second compound 0.316 µM) was > 1 µM. For the same molecule, the IC50 (second compound 1 µM) was > 1 µM, the IC50 (second compound 3.16 µM) was > 1 µM and the IC50 (second compound 10 µM) was 0.295 µM. For the same molecule, the viability, T/C [1] was 95.4%, the viability, T/C [2] was 107% and the viability, T/C [3] was 96%. The viability, T/C [4] was 82.5%, the viability, T/C [5] was 70.5% and the viability, T/C [6] was 51%. It also gave a viability, T/C [7] of 109%, a viability, T/C [8] of 95.7% and a viability, T/C [9] of 88.3%. For the same molecule, the viability, T/C [10] was 80.1%, the viability, T/C [11] was 71.3% and the viability, T/C [12] was 48.3%. It also gave a viability, T/C [13] of 105%, a viability, T/C [14] of 97.5% and a viability, T/C [15] of 87%. For the same molecule, the viability, T/C [16] was 77%, the viability, T/C [17] was 67.8% and the viability, T/C [18] was 52.5%. It also gave a viability, T/C [19] of 105%, a viability, T/C [20] of 95.3% and a viability, T/C [21] of 91.6%. The viability, T/C [22] was 75%, the viability, T/C [23] was 70.4% and the viability, T/C [24] was 51.8%. For the same molecule, the viability, T/C [25] was 100%, the viability, T/C [26] was 87.8% and the viability, T/C [27] was 86.5%. For the same molecule, the viability, T/C [28] was 82%, the viability, T/C [29] was 69.7% and the viability, T/C [30] was 55.3%. For the same molecule, the viability, T/C [31] was 85.9%, the viability, T/C [32] was 89.1% and the viability, T/C [33] was 75.8%. The viability, T/C [34] was 63.7%, the viability, T/C [35] was 48.8% and the viability, T/C [36] was 43.5%.

For `Nc1ccn(C2OC(CO)C(O)C2(F)F)c(=O)n1` (stereo not drawn) + Cc1cccc(N(C)C(=O)C2C(O)CCN2c2nc(C)cc(C(F)(F)F)c2C#N)c1, the IC50 (second compound 0.0316 µM) was > 10 µM, the IC50 (second compound 0.1 µM) was > 10 µM and the IC50 (second compound 0.316 µM) was > 10 µM. For the same molecule, the IC50 (second compound 1 µM) was > 10 µM, the IC50 (second compound 3.16 µM) was > 10 µM and the IC50 (second compound 10 µM) was > 10 µM. It also gave a viability, T/C [3] of 83%, a viability, T/C [4] of 79.4% and a viability, T/C [5] of 76.4%. It also gave a viability, T/C [6] of 72.6%, a viability, T/C [37] of 68% and a viability, T/C [38] of 52.4%. The viability, T/C [9] was 93.8%, the viability, T/C [10] was 87.9% and the viability, T/C [11] was 77.4%. It also gave a viability, T/C [12] of 70.8%, a viability, T/C [39] of 63.5% and a viability, T/C [40] of 54.2%. For the same molecule, the viability, T/C [15] was 103%, the viability, T/C [16] was 87.8% and the viability, T/C [17] was 71.2%. The viability, T/C [18] was 72.8%, the viability, T/C [41] was 66.3% and the viability, T/C [42] was 55.8%. The viability, T/C [21] was 90.9%, the viability, T/C [22] was 82.7% and the viability, T/C [23] was 71%. For the same molecule, the viability, T/C [24] was 70.8%, the viability, T/C [43] was 66.5% and the viability, T/C [44] was 55.1%. It also gave a viability, T/C [27] of 91.8%, a viability, T/C [28] of 80.8% and a viability, T/C [29] of 75.5%. The viability, T/C [30] was 68.3%, the viability, T/C [45] was 70.2% and the viability, T/C [46] was 57.6%. For the same molecule, the viability, T/C [33] was 84.9%, the viability, T/C [34] was 86.4% and the viability, T/C [35] was 75.6%. It also gave a viability, T/C [36] of 72.5%, a viability, T/C [47] of 69.5% and a viability, T/C [48] of 58.5%.
